Results on 25 molecules are retold here after patent US8735584B2 (Merck Patent GmbH, priority 2008, dated 2014).

The structures appear in SMILES notation.

For the assay, the target named is T1, GST-Aurora A (Homo sapiens, UniProt O14965).
T1 construct: N-terminal GST fusion with full length Aurora A (1-403 amino acids); purchased Carna Biosciences 05-101
T1 sequence (O14965 1-403): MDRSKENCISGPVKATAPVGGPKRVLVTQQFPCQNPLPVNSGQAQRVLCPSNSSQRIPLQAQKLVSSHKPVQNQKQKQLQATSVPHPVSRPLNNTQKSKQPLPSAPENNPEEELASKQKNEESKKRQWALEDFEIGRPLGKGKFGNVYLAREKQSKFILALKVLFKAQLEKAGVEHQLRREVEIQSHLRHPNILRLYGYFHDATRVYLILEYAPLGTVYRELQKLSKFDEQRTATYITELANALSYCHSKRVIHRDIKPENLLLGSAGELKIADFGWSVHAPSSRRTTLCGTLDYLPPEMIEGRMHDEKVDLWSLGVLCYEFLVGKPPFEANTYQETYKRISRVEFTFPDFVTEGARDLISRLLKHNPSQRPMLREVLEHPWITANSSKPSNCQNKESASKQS
The assay is described as follows: Aurora A IC50, Caliper LC3000 mobility shift assay. Type of assay: biochemical. The conditions noted are these: LC3000 method; 15 uM ATP (the KM value); read-out: Aurora Kinase A Activity (IC50). The method, then:
The Aurora assays described here are performed on two Caliper Life Sciences systems: the LC3000 and the Desktop Profiler. These provide data on enzyme activity via measurement of the relative amounts of phosphorylated or unphosphorylated fluorescently labelled substrate peptide at the end of an enzymatic reaction. These different states of peptide are resolved by applying a potential difference across the sample. The presence of the charged phosphate group on the product (as opposed to the substrate) causes a different peptide mobility between the two peptides. This is visualized by excitation of the fluorescent label on the substrate and product peptides and represented as peaks within the analysis software.
In order to measure inhibitor activity of Aurora A inhibitors in the Caliper Life Sciences LC3000, a TTP Mosquito liquid handling instrument is used to place 0.25 ul of the appropriate concentration of inhibitor in 100% DMSO (for a dose response curve calculation) into each well of a 384-well plate. To this reaction components are added to a final volume of 25 ul: • 0.067 ng/ul GST-Aurora A (Carna Biosciences 05-101. N-terminal GST fusion with full length Aurora A (1-403 amino acids), accession number NP 940835.1). • 15 uM ATP (Fluke, 02055) • 1 mM DTT (Sigma, D0632) • 1 mM MgCl2 (Sigma, M1028) • 1 uM substrate peptide (sequence FITC-LRRASLG-(CONH2), synthesized by Tufts Peptide Synthesis service. • 100 mM HEPES pH 7.5 (Calbiochem, 391338) • 0.015% Brij-35 (Sigma, B4184)
The reaction is incubated for 90 min at 25 C, and then stopped by the addition of 70 ul of Stop buffer (100 mM HEPES pH 7.5, 0.015% Brij-35, 10 mM EDTA (Sigma, E7889)).
The plate is read on a Caliper LC3000 in an Off-Chip mobility shift assay format, using the following parameters for a 12-sipper chip: screening pressure—1.8 psi, upstream voltage—2700, downstream voltage—1000. These conditions cause unphosphorylated substrate and phosphorylated product peptide to resolve as separate peaks allowing direct measurement of percentage of conversion of substrate to product. The percent conversion can be plotted against concentration of inhibitor to produce a sigmoidal dose response curve, from which an 1050 can be calculated using XLFit for Microsoft Excel.
In the desired wells of a 384-well plate, Aurora A (0.067 ng/ul) was incubated with 15 uM ATP (the KM value), 1 mM DTT, 1 mM MgCl2, and 1 uM peptide substrate (sequence FITC-LRRASLG-(CONH2), FITC=fluorescein isothiocyanate) in 100 mM HEPES pH 7.5 and 0.015% Brij-35 buffer. The reaction was incubated for 90 min at 25 C, and then stopped by the addition of 45 ul of Stop buffer (100 mM HEPES ph 7.5, 0.015% Brij-35, 10 mM EDTA).
The plate was read in a Caliper LC 3000 in an Off-Chip mobility shift assay format, using the following parameters: screening pressure—1.8 psi, upstream voltage—2700, downstream voltage—1000. These conditions cause unphosphorylated substrate peptide to resolve as a peak before that of the phosphorylated peptide product.
In the following table “+” means >100 nM, “++” means 11-100 nM, and “+++” means <11 nM.
As to `O=C(Nc1ccc(Nc2ccnc3[nH]c(=O)c4ccccc4c23)cc1)c1cc(F)cc(F)c1` [Compound 385, 3,5-Difluoro-N-[4-(6-oxo-5,6-dihydro-benzo[c][1,8]naphthyridin-1-ylamino)-phenyl]-benzamide], the concentration for half-maximal inhibition (IC50) is less than 11 nM.
As to `O=C(Nc1ccc(Nc2ccnc3[nH]c(=O)c4ccccc4c23)cc1)c1ncccc1F` [Compound 506, 3-Fluoro-N-(4-(6-oxo-5,6-dihydrobenzo[c][1,8]naphthyridin-1-ylamino)phenyl)picolinamide], the IC50 was in the range of 11 to 100 nM.
Regarding `O=C(CN1CCC(Nc2ccnc3[nH]c(=O)c4ccccc4c23)C1)Nc1ccccc1` (stereo not shown) [Compound 371, 2-(3-(6-Oxo-5,6-dihydrobenzo[c][1,8]naphthyridin-1-ylamino)pyrrolidin-1-yl)-N-phenylacetamide], the half-maximal inhibitory concentration (IC50) is greater than 100 nM.
The result for `CN1CCN(C(=O)c2ccc3c(=O)[nH]c4nccc(Nc5ccc(NC(=O)c6ccccc6)cc5)c4c3c2)CC1` [Compound 290, N-(4-(9-(4-Methylpiperazine-1-carbonyl)-6-oxo-5,6-dihydrobenzo[c][1,8]naphthyridin-1-ylamino)phenyl)benzamide] reads 11 to 100 nM.
As to `COc1ccccc1C(=O)Nc1ccc(Nc2ccnc3[nH]c(=O)c4ccccc4c23)cc1` [Example 148, 2-Methoxy-N-[4-(6-oxo-5,6-dihydro-benzo[c][1,8]naphthyridin-1-ylamino)-phenyl]-benzamide], the concentration for half-maximal inhibition (IC50) is less than 11 nM.
Turning to `O=C(Nc1ccc(Nc2ccnc3[nH]c(=O)c4c(C(=O)NCCN5CCOCC5)cccc4c23)cc1)c1ccc(F)cc1C(F)(F)F` [Compound 442, 1-[4-(4-Fluoro-2-trifluoromethyl-benzoylamino)-phenylamino]-6-oxo-5,6-dihydro-benzo[c][1,8]naphthyridine-7-carboxylic acid (2-morpholin-4-yl-ethyl)-amide], the IC50 was less than 11 nM.
On to `O=C(CN1CCC(Nc2ccnc3[nH]c(=O)c4ccccc4c23)CC1)Nc1ccccc1` [Compound 372, 2-(4-(6-Oxo-5,6-dihydrobenzo[c][1,8]naphthyridin-1-ylamino)piperidin-1-yl)-N-phenylacetamide], for which the IC50 was 11 to 100 nM.
In the case of `COc1cc2c(=O)[nH]c3nccc(Nc4ccc(F)cc4)c3c2cc1OC` [Example 215, 1-(4-Fluoro-phenylamino)-8,9-dimethoxy-5H-benzo[c][1,8]naphthyridin-6-one], the IC50 is greater than 100 nM.
In the case of `CC(=O)Nc1ccc(C#Cc2ccnc3[nH]c(=O)c4ccccc4c23)cc1` [Compound 265] it was greater than 100 nM; in that of `O=C(Cc1ccc(Nc2ccnc3[nH]c(=O)c4ccccc4c23)cc1)Nc1ccccc1` [Compound 303, 2-(4-(6-Oxo-5,6-dihydrobenzo[c][1,8]naphthyridin-1-ylamino)phenyl)-N phenylacetamide], 11 to 100 nM; in that of `O=C(Nc1ccc(Nc2ccnc3[nH]c(=O)c4ccc(F)cc4c23)cc1)c1ccc(F)cc1` [Compound 419, 4-Fluoro-N-[4-(9-fluoro-6-oxo-5,6-dihydro-benzo[c][1,8]naphthyridin-1-ylamino)-phenyl]-benzamide], less than 11 nM.
`N#Cc1ccccc1CNc1ccc2c(=O)[nH]c3ncccc3c2c1` [Compound 462, 2-((6-oxo-5,6-dihydrobenzo[c][1,8]naphthyridin-9-ylamino)methyl)benzonitrile]: the concentration for half-maximal inhibition (IC50) is greater than 100 nM.
With `O=C(Nc1ccc(Oc2ccnc3[nH]c(=O)c4ccccc4c23)cc1F)c1cccn(-c2ccc(F)cc2)c1=O` [Example 187, 1-(4-Fluoro-phenyl)-2-oxo-1,2-dihydro-pyridine-3-carboxylic acid [2-fluoro-4-(6-oxo-5,6-dihydro-benzo[c][1,8]naphthyridin-1-yloxy)-phenyl]-amide], the half-maximal inhibitory concentration (IC50) is greater than 100 nM.
In the case of `O=C(Nc1ccc(CNc2ccnc3[nH]c(=O)c4ccccc4c23)cc1)c1ccccc1` [Compound 325, N-(4-((6-Oxo-5,6-dihydrobenzo[c][1,8]naphthyridin-1-ylamino)methyl)phenyl)benzamide], the concentration for half-maximal inhibition (IC50) lay in the range of 11 to 100 nM.
Turning to `O=C(CN1CCC(Nc2ccnc3[nH]c(=O)c4ccccc4c23)CC1)Nc1ccc(F)cc1` [Compound 374, N-(4-Fluorophenyl)-2-(4-(6-oxo-5,6-dihydrobenzo[c][1,8]naphthyridin-1-ylamino)piperidin-1-yl)acetamide], the IC50 was in the range of 11 to 100 nM.
Turning to `CN1CCN(Cc2ccccc2C(=O)Nc2ccc(Nc3ccnc4[nH]c(=O)c5ccccc5c34)cc2)CC1` [Compound 355, 2-((4-Methylpiperazin-1-yl)methyl)-N-(4-(6-oxo-5,6-dihydrobenzo[c][1,8]naphthyridin-1-ylamino)phenyl)benzamide], the IC50 is greater than 100 nM.
As to `O=C(Nc1ccc(Nc2ccnc3[nH]c(=O)c4ccccc4c23)cc1)C1(C(F)(F)F)CCCC1` [Compound 500, N-(4-(6-Oxo-5,6-dihydrobenzo[c][1,8]naphthyridin-1-ylamino)phenyl)-1-(trifluoromethyl)cyclopentanecarboxamide], the IC50 lay in the range of 11 to 100 nM.
The result for `O=C(Nc1ccc(Nc2ccnc3[nH]c(=O)c4c(C(=O)O)cccc4c23)cc1)c1ccc(F)cc1C(F)(F)F` [Compound 439, 1-[4-(4-Fluoro-2-trifluoromethyl-benzoylamino)-phenylamino)-6-oxo-5,6-dihydro-benzo[c][1,8]naphthyridin-7-carboxylic acid] reads less than 11 nM; that for `O=C(Nc1ccc(Nc2ccnc3[nH]c(=O)c4ccccc4c23)cc1)c1cc(C(F)(F)F)cc(C(F)(F)F)c1` [Compound 400, N-[4-(6-Oxo-5,6-dihydro-benzo[c][1,8]naphthyridin-1-ylamino)-phenyl]-3,5-bis-trifluoromethyl-benzamide], 11 to 100 nM; that for `CN1CCN(CCNC(=O)c2ccc3c(=O)[nH]c4nccc(Nc5ccc(NC(=O)c6ccccc6)cc5)c4c3c2)CC1` [Compound 286, 1-(4-benzamidophenylamino)-N-(2-(4-methylpiperazin-1-yl)ethyl)-6-oxo-5,6-dihydrobenzo[c][1,8]naphthyridine-9-carboxamide], 11 to 100 nM.
For `O=C(Nc1ccc(Nc2ccnc3[nH]c(=O)c4ccccc4c23)cc1)c1ccc(OC(F)(F)F)cc1` [Compound 401, N-[4-(6-Oxo-5,6-dihydro-benzo[c][1,8]naphthyridin-1-ylamino)-phenyl]-4-trifluoromethoxy-benzamide], the concentration for half-maximal inhibition (IC50) lay within 11 to 100 nM.
Turning to `O=c1[nH]c2ncccc2c2cc(NCc3ccc4c(c3)OCO4)ccc12` [Compound 476, 9-(Benzo[d][1,3]dioxol-5-ylmethylamino)benzo[c][1,8]naphthyridin-6(5H)-one], the 50% inhibitory concentration (IC50) is greater than 100 nM.
For the molecule `O=C(c1ccccc1)N1CC(Nc2ccnc3[nH]c(=O)c4ccccc4c23)C1` [Compound 366, 1-(1-Benzoylazetidin-3-ylamino)benzo[c][1,8]naphthyridin-6(5H)-one], the IC50 was greater than 100 nM.
With `O=C(Nc1ccc(Nc2ccnc3[nH]c(=O)c4c(C(=O)O)cccc4c23)cc1)c1ccccc1` [Compound 434, 1-[4-Benzoylamino-phenylamino)-6-oxo-5,6-dihydro-benzo[c][1,8]naphthyridin-7-carboxylic acid], the IC50 lay in the range of 11 to 100 nM.
Consider `CN(C(=O)CN1CCC(Nc2ccnc3[nH]c(=O)c4ccccc4c23)CC1)c1ccccc1` [Compound 377, N-Methyl-2-(4-(6-oxo-5,6-dihydrobenzo[c][1,8]naphthyridin-1-ylamino)piperidin-1-yl)-N-phenylacetamide], for which the IC50 was greater than 100 nM.
